pEC50: −log10 of the molar value.

32 compounds from patent publication US20230312605A1, “PYRROLO[2,1-F][1,2,4]TRIAZINES AND PREPARATION AND USES THEREOF” (BioSplice Therapeutics, Inc., priority 2021, published 2023) can be followed below.

The target in the assay is recombinant DYRK1A kinase (Homo sapiens (Human), UniProt Q13627). Kind of assay: DYRK1A kinase assay (Ser/Thr 18 peptide Z-lyte FRET assay). The format is biochemical. The conditions noted are these: recombinant DYRK1A 0.25 µg/mL, ATP 15 µM, Ser/Thr peptide 18 4 µM, one hour at room temperature; table head prints EC50, method says IC50. An outline of the steps: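 Z-lyte FRET format: 1 h room-temperature reaction of 15 µM ATP, 4 µM Ser/Thr 18 peptide and 0.25 µg/mL recombinant human DYRK1A, in duplicate over 11 compound concentrations up to 10 µM. IC50 was derived by non-linear regression of percent phosphorylation calculated from coumarin/fluorescein emission ratios.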
Consider `COCCO[C@H]1C[C@@H](Nc2ncc3c(-c4cnc5ncccc5c4)ccn3n2)C1` [Compound 1522, N-(cis-3-(2-Methoxyethoxy)cyclobutyl)-5-(1,8-naphthyridin-3-yl)pyrrolo [2,1-f][1,2,4]triazin-2-amine], for which the pEC50 is 8.52. In the case of `O[C@H]1CC[C@@H](Nc2ncc3c(-c4cnc5ncccc5c4)ccn3n2)CC1` [Compound 1535, cis-4-((5-(1.8-Naphthyridin-3-yl)pyrrolo[2,1-f][1,2,4]triazin-2-yl)amino) cyclohexan-1-ol] it was 8.15; in that of `C[C@]1(O)CC[C@@H](Nc2ncc3c(-c4cnc5ncccc5c4)ccn3n2)CC1` [Compound 1536, (1 s,4s)-4-((5-(1,8 -Naphthyridin-3-yl)pyrrolo [2,1-f] [1,2,4]triazin-2-yl)amino)-1-methylcyclohexan-1-ol], 8.30.

`CO[C@H]1CC[C@@H](Nc2ncc3c(-c4cnc5ncccc5c4)ccn3n2)CC1` [Compound 1537, N-(cis-4-Methoxycyclohexyl)-5-(1,8-naphthyridin-3-yl)pyrrolo[2,1-f] [1,2,4]triazin-2-amine]: the pEC50 is 8.52. In the case of `CCO[C@H]1CC[C@@H](Nc2ncc3c(-c4cnc5ncccc5c4)ccn3n2)CC1` [Compound 1541] it was 8.52.

Consider `COCCO[C@H]1CC[C@@H](Nc2ncc3c(-c4cnc5ncccc5c4)ccn3n2)CC1` [Compound 1543, N-(cis-4-(2-Methoxyethoxy)cyclohexyl)-5-(1,8-naphthyridin-3-yl)pyrrolo [2,1-f][1,2,4]triazin-2-amine], for which the pEC50 is 8.70. In the case of `COCCO[C@H]1CC[C@H](Nc2ncc3c(-c4cnc5ncccc5c4)ccn3n2)CC1` [Compound 1544, N-(trans-4-(2-Methoxyethoxy)cyclohexyl)-5-(1,8-naphthyridin-3-yl)pyrrolo [2,1-f][1,2,4]triazin-2-amine] it was 8.30; in that of `c1cnc2ncc(-c3ccn4nc(N[C@H]5CC[C@@H](N6CCOCC6)CC5)ncc34)cc2c1` [Compound 1551, N-(cis-4-Morpholinocyclohcxy1)-5-(1,8-naphthyridin-3-yl)pyrrolo[2,1-f] [1,2,4]triazin-2-amine], 7.42. In the case of `CN1CCC(Nc2ncc3c(-c4cnc5ncccc5c4)ccn3n2)CC1` [Compound 1557, N-(1 -Methylpiperidin-4-yl)-5-(1,8-naphthyridin-3-yl)pyrrolo [2,1-f] [1,2,4] triazin-2-amine] it was 7.74; in that of `Cc1nc2ccc(-c3ccn4nc(N[C@H]5C[C@@H](O)C5)ncc34)nc2n1CC(F)F` [Compound 1720, cis-3-((5-(3-(2,2-Difluoroethyl)-2-methyl-3H-imidazo [4,5-b]pyridin-5-yl)pyrrolo[2,1-f] [1,2,4]triazin-2-yl)amino)cyclobutan-1-ol], 8.30. In the case of `O[C@H]1C[C@@H](Nc2ncc3c(-c4ccc5ncccc5c4)ccn3n2)C1` [Compound 1723, cis-3-((5-(Quinolin-6-yl)pyrrolo[2,1-f][1,2,4]triazin-2-yl)amino)cyclobutan-1-ol] it was 8.40. Turning to `c1cn2cc(-c3ccn4nc(NC5CC6(CNC6)C5)ncc34)cnc2n1` [Compound 1732, 5-(Imidazo[1,2-a]pyrimidin-6-yl)-N-(2-azaspiro[3.3]heptan-6-yl)pyrrolo[2,1-f][1,2,4]triazin-2-amine], the pEC50 was 7.89. The value for `c1cnc2ccc(-c3ccn4nc(NC5CC6(CNC6)C5)ncc34)cc2c1` [Compound 1747, 5-(Quinolin-6-yl)-N-(2-azaspiro[3.3]heptan-6-yl)pyrrolo[2,1-f][1,2,4]triazin-2-amine] was 8.52. The value for `CC(C)CN1CC2(CC(Nc3ncc4c(-c5cnc6nccn6c5)ccn4n3)C2)C1` [Compound 1756, 5-(Imidazo[1,2-a]pyrimidin-6-yl)-N-(2-isobutyl-2-azaspiro[3.3]heptan-6-yl)pyrrolo [2,1-f][1,2,4]triazin-2-amine] was 7.74.

As for `CC(C)CN1CC2(CC(Nc3ncc4c(-c5ccc6ncccc6c5)ccn4n3)C2)C1` [Compound 1771, N-(2-isobutyl-2-azaspiro[3.3]heptan-6-yl)-5-(quinolin-6-yl)pyrrolo[2,1-f] [1,2,4]triazin-2-amine], the pEC50 was 8.30. The value for `FC(F)(F)O[C@H]1CC[C@@H](Nc2ncc3c(-c4cnc5nccn5c4)ccn3n2)CC1` [Compound 1780, 5-(Imidazo[1,2-a]pyrimidin-6-yl)-N-(cis-4-(trifluoromethoxy)cyclohexyl) pyrrolo[2,1-f][1,2,4]triazin-2-amine] was 8.15. As for `Cc1nc2ncc(-c3ccn4nc(N[C@H]5CC[C@@H](OC(F)(F)F)CC5)ncc34)cc2n1CC(F)F` [Compound 1786, 5-(1-(2,2-Difluoroethyl)-2-methyl-1H-imidazo[4,5-b]pyridin-6-yl)-N-(cis-4-(trifluoromethoxy)cyclohexyl)pyrrolo[2,1-f][1,2,4]triazin-2-amine], the pEC50 is 8.30. The value for `Cc1nc2ccc(-c3ccn4nc(N[C@H]5CC[C@@H](OC(F)(F)F)CC5)ncc34)nc2n1CC(F)F` [Compound 1792, 5-(3-(2,2-Difluoroethyl)-2-methyl-3H-imidazo[4,5-b]pyridin-5-yl)-N-(cis-4-(trifluoromethoxy)cyclohexyl)pyrrolo[2,1-f][1,2,4]triazin-2-amine] was 7.59; that for `FC(F)(F)O[C@H]1CC[C@@H](Nc2ncc3c(-c4cnc5ncccc5c4)ccn3n2)CC1` [Compound 1798, 5-(1,8-Naphthyridin-3-yl)-N-(cis-4-(trifluoromethoxy)cyclohexyl)pyrrolo [2,1-f][1,2,4]triazin-2-amine] was 8.40. The value for `[2H]C([2H])([2H])O[C@H]1CC[C@@H](Nc2ncc3c(-c4cnc5nccn5c4)ccn3n2)CC1` [Compound 1802, 5-(Imidazo[1,2-a]pyrimidin-6-yl)-N-(cis-4-(methoxy-ds)cyclohexyl)pyrrolo [2,1-f][1,2,4] triazin-2-amine] was 8.30; that for `[2H]C([2H])([2H])O[C@H]1CC[C@@H](Nc2ncc3c(-c4ccc5nc(C)n(CC(F)F)c5n4)ccn3n2)CC1` [Compound 1803, 5-(3-(2,2-Difluoroethyl)-2-methyl-3H-imidazo[4,5-b]pyridin-5-yl)-N-(cis-4-(methoxy-d3)cyclohexyl)pyrrolo[2,1-f][1,2,4]triazin-2-amine] was 8.52; that for `Cc1nc2ncc(-c3ccn4nc(N[C@H]5C[C@@](C)(O)C5)ncc34)cc2n1CC(F)F` [Compound 1813, cis-3-((5-(1-(2,2-Difluoroethyl)-2-methyl-1H-imidazo [4,5-b]pyridin-6-yl)pyrrolo[2,1-f] [1,2,4]triazin-2-yl)amino)-1-methylcyclobutan-1-ol] was 8.40. The value for `Cc1nc2ccc(-c3ccn4nc(N[C@H]5C[C@@](C)(O)C5)ncc34)nc2n1CC(F)F` [Compound 1819, cis-3-((5-(3-(2,2-Difluoroethyl)-2-methyl-3H-imidazo [4,5-b]pyridin-5-yl)pyrrolo[2,1-f] [1,2,4]triazin-2-yl)amino)-1-methylcyclobutan-1-ol] was 8.52. In the case of `C[C@]1(O)C[C@@H](Nc2ncc3c(-c4cnc5ncccc5c4)ccn3n2)C1` [Compound 1825, cis-3-((5-(1,8-Naphthyridin-3-yl)pyrrolo[2,1-f][1,2,4]triazin-2-yl)amino)-1-methylcyclobutan-1-ol], the pEC50 is 8.30. In the case of `C[C@]1(O)CC[C@H](Nc2ncc3c(-c4ccc5nccn5c4)ccn3n2)CC1` [Compound 1828, trans-4-((5-(Imidazo[1,2-a]pyridin-6-yl)pyrrolo[2,1-f][l,2,4]triazin-2-yl)amino) -1-methylcyclohexan-1-ol] it was 8.00; in that of `Cc1nc2ccc(-c3ccn4nc(N[C@H]5CC[C@@](C)(O)CC5)ncc34)nc2n1CC(C)C` [Compound 1829, cis-4-((5-(3-Isobutyl-2-methyl-3H-imidazo[4,5-b]pyridin-5-yl)pyrrolo[2,1-f] [1,2,4]triazin-2-yl)amino)-1-methylcyclohexan-1-ol], 7.48. On to `Cc1nc2ccc(-c3ccn4nc(N[C@H](C)CO)ncc34)nc2n1CC(F)F` [Compound 1830, (R)-2-((5-(3-(2,2-Difluoroethyl)-2-methyl-3H-imidazo[4,5-b]pyridin-5-yl)pyrrolo[2,1-f][1,2,4]triazin-2-yl)amino)propan-1-ol], for which the pEC50 is 7.80. In the case of `Cc1nc2ccc(-c3ccn4nc(NC[C@@H](C)O)ncc34)nc2n1CC(F)F` [Compound 1831, (R)-1-((5-(3-(2,2-Difluoroethyl)-2-methyl-3H-imidazo[4,5-b]pyridin-5-yl)pyrrolo [2,1-f] [1,2,4]triazin-2-yl)amino)propan-2-ol] it was 8.15; in that of `Cc1nc2ccc(-c3ccn4nc(NC[C@H](C)O)ncc34)nc2n1CC(F)F` [Compound 1832, (S)-1-((5-(3-(2,2-Difluoroethyl)-2-methyl-3H-imidazo[4,5-b]pyridin-5-yl)pyrrolo [2,1-f] [1,2,4]triazin-2-yl)amino)propan-2-ol], 8.22; in that of `Cc1nc2ccc(-c3ccn4nc(NCC(C)(C)O)ncc34)nc2n1CC(F)F` [Compound 1833, 1-((5-(3-(2,2-Difluoroethyl)-2-methyl-3H-imidazo[4,5-b]pyridin-5-yl)pyrrolo[2,1-f][1,2,4]triazin-2-yl)amino)-2-methylpropan-2-ol], 8.10. The value for `Cc1nc2ccc(-c3ccn4nc(N[C@H]5C[C@@H](CO)C5)ncc34)nc2n1CC(F)F` [Compound 1834, (cis-3-((5-(3-(2,2-Difluoroethyl)-2-methyl-3H-imidazo[4,5-b]pyridin-5-yl)pyrrolo[2,1-f][1,2,4]triazin-2-yl)amino)cyclobutyl)methanol] was 8.52. The value for `Cc1nc2ccc(-c3ccn4nc(N[C@H]5C[C@](C)(O)C5)ncc34)nc2n1CC(F)F` [Compound 1835, trans-3-((5-(3-(2,2-Difluoroethyl)-2-methyl-3H-imidazo[4,5-b]pyridin-5-yl)pyrrolo[2,1-f][1,2,4]triazin-2-yl)amino)-1-methylcyclobutan-1-ol] was 8.52.
